The source of these data is US8168232B2, “Formulations and methods of using nitric oxide mimetics in cancer treatment” (priority 2000, dated 2012).

One assay relates to PAI-1 mRNA. In words: Northern blot of PAI-1 mRNA in breast cancer cells. The class given is cell-based, human. Particulars: SNP 10^−12 M, GTN 10^−11 M. As for the experimental part:
Following incubation, the total cellular RNA from the cells was isolated using the Gentra […] RNA Isolation Kit. The isolated RNA was subsequently separated by electrophoresis, and transferred to charged nylon membranes. The membranes were prehybridized at 42° C. for approximately 2 hours in a solution containing 50% formamide, 5×Denhardt's solution, 0.5% sodium dodecyl sulfate (SDS), 6×SSC (1×SSC=0.15 M NaCl, 15 mM sodium citrate, pH 7.0) and 100 μg/mL denatured salmon sperm DNA. They were then hybridized with a [^32P]-dCTP-labeled cDNA probe (uPAR or PAI-1) for approximately 24 hours at 42° C. in a solution composed of 6×SSC, 0.5% SDS, 100 μg/mL denatured salmon sperm DNA and 50% formamide, and containing a cDNA probe (uPAR or PAI-1) which was labeled with [^32P]-dCTP using a Pharmacia Oligolabelling kit. Following serial washes, the membrane was used to expose Dupont Reflection NEF film. After 1-4 days, the film was developed and analyzed. To correct for differences in the amount of RNA loaded in each sample, 28S rRNA was used.

The test system of assay [1] is HTR-8/SVneo invasive trophoblast cells. In words: In vitro Matrigel invasion assay, HTR-8/SVneo. The class given is cell-based. The conditions noted are these: Homo sapiens, read-out: inhibition of invasiveness of hypoxic cells. On the procedure:
The chambers consist of cell culture inserts, 6.5 mm in diameter and with a 8 μm pore size membrane. Each membrane was coated with 100 μL of a 1 mg/mL solution of Matrigel diluted in cold serum-free culture medium (EX-CELL 300), and allowed to dry in a laminar flow cabinet for approximately 12 hours. The Matrigel was then rehydrated by incubating it with 100 μL of serum-free medium for approximately 1 hour. After rehydration, cell suspensions containing 5.0×10^4 or 1.0×10^5 cells in 100 μL of medium, containing both serum and the nitric oxide treatments, were added to each well. Culture medium containing serum and the respective nitric oxide treatment were then added to each insert. The cells were incubated for 24 hours under either hypoxic (1% O2) or control (20% O2) conditions. Following incubation, the non-invading cells were removed from the upper surface of the membrane by wiping with a cotton swab. The cells on the lower surface of the membrane were fixed for 10 minutes with Carnoy's fixative (25% acetic acid, 75% methanol), and then stained for approximately 3 hours with a 1% toluidine blue, 1% sodium borate solution. […] Invading cells were then viewed under the microscope at 40× magnification and counted. The invasion index for each treatment was calculated by dividing the number of invading cells by the number of cells which invaded under standard conditions. […]

As usually defined, the inhibition is the change of the read-out against control, counted positive when it falls. Take `O=[N+]([O-])OCC(CO[N+](=O)[O-])O[N+](=O)[O-]` [GTN, glyceryl trinitrate]: in the assay on PAI-1 mRNA, the “PAI-1 mRNA levels vs untreated hypoxic cells” value is on record as “significantly decreased”. Besides, the inhibition at 0.1 µM in assay [1] amounted to 56.2%.
